Reference: patent US20190159452A1, “ACTIVE COMPOUND COMBINATIONS COMPRISING A (THIO)CARBOXAMIDE DERIVATIVE AND A FUNGICIDAL COMPOUND” (BAYER CROPSCIENCE AKTIENGESELLSCHAFT, priority 2015, published 2019)
Values belong to the compound of their own block, whether it stands above or below them.

Key:
Leptosphaeria nodorum = test: in vitro-test Leptosphaeria nodorum (microtiter plate, growth by extinction at 620 nm); format: cell-based; settings: 2.5 ppm a.i., 3-5 days incubation
Text: A synergistic effect of fungicides is always present when the fungicidal activity of the active compound combinations exceeds the total of the activities of the active compounds when applied individually. The expected activity for a given combination of two active compounds can be calculated as follows (cf. Colby, S. R., “Calculating Synergistic and Antagonistic Responses of Herbicide Combinations”, Weeds 1967, 15, 20-22): • If • X is the efficacy when active compound A is applied at an application rate of m ppm (or g/ha), • Y is the efficacy when active compound B is applied at an application rate of n ppm (or g/ha), • E is the efficacy when the active compounds A and B are applied at application rates of m and n ppm (or g/ha), respectively, and • then […]
The resulting concentrations of the test compounds or compound combinations in the microtiter wells are such as 50, 10, 2 and 0.4 ppm. […] With the aid of a photometer the extinction in all wells is measured at the wavelength of 620 nm. […]
At the end of the incubation time the growth of the test organisms is measured again photometrically at the wavelength of 620 nm. […] 0% efficacy means, the difference between the two extinction values is equal or even higher than of the untreated control, 100% efficacy means, no growth of the test organism is detected

[1] = tested on: Blumeria graminis f.sp. hordei; test: in vivo preventive Blumeria test (barley); settings: 7 days after inoculation
Text: (§1) A synergistic effect of fungicides is always present when the fungicidal activity of the active compound combinations exceeds the total of the activities of the active compounds when applied individually. The expected activity for a given combination of two active compounds can be calculated as follows (cf. Colby, S. R., “Calculating Synergistic and Antagonistic Responses of Herbicide Combinations”, Weeds 1967, 15, 20-22): • If • X is the efficacy when active compound A is applied at an application rate of m ppm (or g/ha), • Y is the efficacy when active compound B is applied at an application rate of n ppm (or g/ha), • E is the efficacy when the active compounds A and B are applied at application rates of m and n ppm (or g/ha), respectively, and • then
(§2) The degree of efficacy, expressed in % is denoted. 0% means an efficacy which corresponds to that of the control while an efficacy of 100% means that no disease is observed.
(§3) Solvent: 49 parts by weight of N,N-dimethylacetamide
(§4) Emulsifier: 1 part by weight of alkylaryl polyglycol ether
(§5) To produce a suitable preparation of active compound, 1 part by weight of active compound or active compound combination is mixed with the stated amounts of solvent and emulsifier, and the concentrate is diluted with water to the desired concentration.
To test for preventive activity, young plants are sprayed with the preparation of active compound or active compound combination at the stated rate of application. After the spray coating has been dried, the plants are dusted with spores of Blumeria graminis f.sp. hordei.
The plants are placed in the greenhouse at a temperature of approximately 18° C. and a relative atmospheric humidity of approximately 80% to promote the development of mildew pustules.
The test is evaluated 7 days after the inoculation. 0% means an efficacy which corresponds to that of the untreated control, while an efficacy of 100% means that no disease is observed.

Puccinia triticina = test: in vivo preventive Puccinia triticina test (wheat); settings: 8 days after inoculation
Text: as §1, §2, §3, §4, §5
(§6) To test for preventive activity, young plants are sprayed with the preparation of active compound or active compound combination at the stated rate of application.
(§7) After the spray coating has been dried, the plants are sprayed with a spore suspension of Puccinia triticina. The plants remain for 48 hours in an incubation cabinet at approximately 20° C. and a relative atmospheric humidity of approximately 100%.
The plants are placed in the greenhouse at a temperature of approximately 20° C. and a relative atmospheric humidity of approximately 80%.
(§8) The test is evaluated 8 days after the inoculation. 0% means an efficacy which corresponds to that of the untreated control, while an efficacy of 100% means that no disease is observed.

Pyrenophora teres = test: in vivo preventive Pyrenophora teres test (barley); settings: 8 days after inoculation
Text: as §1, §2, §3, §4, §5, §6
as §7, with “Pyrenophora teres.” for “Puccinia triticina.”, “100%. The plants are placed in the greenhouse at a temperature of approximately 20° C. and a relative atmospheric humidity of approximately 80%.” for “100%.”
as §8

Septoria tritici [2] = test: in vitro-test Septoria tritici (microtiter plate, growth by extinction at 620 nm); format: cell-based
Text: as §1
Wells of 96-well microtiter plates are filled with 10 μl of a solution of the test compounds or compound combinations in methanol together with the emulsifier alkylaryl polyglycol ether. Thereafter, the solvent is evaporated in a hood. At the next step, into each well 100 μl of liquid potato dextrose medium is given, that has been amended with an appropriate concentration of spores or mycelium suspension of the test fungus.
The resulting concentrations of the test compounds or compound combinations in the microtiter wells are such as 50, 10, 2 and 0.4 ppm. The resulting concentration of the emulsifier in all wells is constantly 300 ppm. With the aid of a photometer the extinction in all wells is measured at the wavelength of 620 nm.
The microtiter plates are then transferred for 3-5 days onto a shaker at 20° C. and 85% relative humidity.
At the end of the incubation time the growth of the test organisms is measured again photometrically at the wavelength of 620 nm. The difference between the two extinctions values (taken before and after incubation) is proportional to the growth of the test organism. 0% efficacy means, the difference between the two extinction values is equal or even higher than of the untreated control, 100% efficacy means, no growth of the test organism is detected

[3] = log P by HPLC on a reversed-phase column (C18), EEC Directive 79/831 Annex V.A8; format: physicochemical; settings: for chromatographic logP: reversed-phase C18 HPLC column, printed after the preparation step, method not restated
Experimental: In table 1, the log P values were determined in accordance with EEC Directive 79/831 Annex V.A8 by HPLC (High Performance Liquid Chromatography) on a reversed-phase column (C18), using the method described below:
Temperature: 40° C.; Mobile phases: 0.1% aqueous formic acid and acetonitrile; linear gradient from 10% acetonitrile to 90% acetonitrile.
Calibration was carried out using unbranched alkan-2-ones (comprising 3 to 16 carbon atoms) with known log P values (determination of the log P values by the retention times using linear interpolation between two successive alkanones). lambda-max-values were determined using UV-spectra from 200 nm to 400 nm and the peak values of the chromatographic signals.

Septoria tritici [4] = test: in vivo preventive Septoria tritici test (wheat); settings: 21 days after inoculation
Text: as §1, §2, §3, §4
To produce a suitable preparation of active compound, 1 part by weight of active compound or active compound combination is mixed with the stated amounts of solvent and emulsifier, and the concentrate is diluted with water to the desired concentration. […]
The test is evaluated 21 days after the inoculation. […]

[5] = 0.1 ppm a.i., 3-5 days incubation
[6] = Table B1, 30 ppm a.i., wheat, preventive

Compound: CC(C)C(O)(Cn1cncn1)c1ccc(Oc2ccc(Cl)cc2)cc1C(F)(F)F (centres unmarked) [(B2), 2-[4-(4-chlorophenoxy)-2-(trifluoromethyl)phenyl]-3-methyl-1-(1H-1,2,4-triazol-1-yl)butan-2-ol]
Efficacy in % found (Leptosphaeria nodorum): 1%
Efficacy in % found ([1]; 30 ppm a.i.): 0%
Efficacy in % found ([1]; 50 ppm a.i.): 30%
Efficacy in % found ([1]; 60 ppm a.i.): 60%
Efficacy in % found ([1]; 100 ppm a.i.): 70%
Efficacy in % found (Puccinia triticina; Table B2, 30 ppm a.i.): 0%
Efficacy in % found (Puccinia triticina; Table B2, 50 ppm a.i.): 10%
Efficacy in % found (Puccinia triticina; Table B2, 100 ppm a.i.): 30%
Efficacy in % found (Puccinia triticina; Table B2, 200 ppm a.i.): 40%
Efficacy in % found (Pyrenophora teres; 50 ppm a.i.): 22%
Efficacy in % found (Pyrenophora teres; 60 ppm a.i.): 44%
Efficacy in % found (Pyrenophora teres; 100 ppm a.i.): 56%
Efficacy in % found (Septoria tritici [2]; [5]): 0%
Efficacy in % found (Septoria tritici [2]; 0.3 ppm a.i.): 6%
Efficacy in % found (Septoria tritici [2]; 0.6 ppm a.i.): 0%

chromatographic logP [3]: 1.26
Compound: Cc1ccc(S(=O)(=O)n2cc(F)c(=N)n(C)c2=O)cc1 [(B1), 5-fluoro-4-imino-3-methyl-1-[(4-methylphenyl)sulfonyl]-3,4-dihydropyrimidin-2(1H)-one]
Efficacy in % found (Septoria tritici [4]; 30 ppm a.i.): 0%
Efficacy in % found (Puccinia triticina; [6]): 0%

logP [3]: 4.36
Compound: N-cyclopropyl-3-(difluoromethyl)-5-fluoro-N-(2-isopropylbenzyl)-1-methyl-1H-pyrazole-4-carbothio-amide [Compound A20]

chromatographic logP [3]: 1.45
Compound: Cc1ccc(S(=O)(=O)n2cc(F)c(N)nc2=O)cc1 [5-fluoro-4-imino-1-(p-tolylsulfonyl)pyrimidin-2-one]

Compound: CC(C)c1ccc(Cl)cc1CN(C(=O)c1c(C(F)F)nn(C)c1F)C1CC1 [Compound A5, N-(5-chloro-2-isopropylbenzyl)-N-cyclopropyl-3-(difluoromethyl)-5-fluoro-1-methyl-1H-pyrazole-4-carboxamide]
Efficacy in % found (Leptosphaeria nodorum): 36%
Efficacy in % found ([1]; 5 ppm a.i.): 0%
Efficacy in % found ([1]; 10 ppm a.i.): 20%
Efficacy in % found ([1]; 20 ppm a.i., barley, preventive): 40%
Efficacy in % found (Septoria tritici [4]; 10 ppm a.i.): 29%
Efficacy in % found (Puccinia triticina; [6]): 75%
Efficacy in % found (Puccinia triticina; Table B2, 5 ppm a.i.): 30%
Efficacy in % found (Puccinia triticina; Table B2, 10 ppm a.i.): 40%
Efficacy in % found (Puccinia triticina; Table B2, 20 ppm a.i., wheat, preventive): 70%
Efficacy in % found (Pyrenophora teres; 5 ppm a.i.): 44%
Efficacy in % found (Pyrenophora teres; 10 ppm a.i., barley, preventive): 67%
Efficacy in % found (Septoria tritici [2]; [5]): 65%
